These results are taken from patent publication US9701664B2, “Fused 1,4-dihydrodioxin derivatives as inhibitors of heat shock transcription factor 1” (Cancer Research Technology Limited, priority 2013, dated 2017).

Read-outs that look alike come from different tables or passages of the source.

In one test the test system is U2OS cells. Nature of the test: Titre Blue cell viability assay, U2OS cells. The format is cell-based.
A further test concerns HSP72 in U2OS cells. Nature of the test: Cell-based ELISA (Cellisa) assay, U2OS cells: inhibition of 17-AAG-induced HSP72. As to conditions: U2OS cells (Examples 1-168).

`Cc1ccc(NC(=O)c2ccc3c(c2)OCCO3)cc1NC(=O)c1ccc2nc(CCN3CCOCC3)ccc2c1` [Example 144, N-(5-(2,3-dihydrobenzo[b][1,4]dioxine-6-carboxamido)-2-methylphenyl)-2-(2-morpholinoethyl)quinoline-6-carboxamide]: the IC50 in the test on U2OS cells (Homo sapiens, U2OS) amounted to 80 nM; in the test on HSP72 in U2OS cells (Homo sapiens), 60 nM.
For `Cc1ccc(NC(=O)c2ccc3c(c2)OCCO3)cc1NC(=O)c1ccc2nc(COC(C)C)ccc2c1` [Example 145, N-(5-(2,3-dihydrobenzo[b][1,4]dioxine-6-carboxamido)-2-methylphenyl)-2-(isopropoxymethyl)quinoline-6-carboxamide], the IC50 turned out to be 17 nM with U2OS cells (Homo sapiens, U2OS) and 64 nM with HSP72 in U2OS cells (Homo sapiens).
As to `Cc1ccc(NC(=O)c2ccc3c(c2)OCCO3)cc1NC(=O)c1ccc2nc(COCC3CCCO3)ccc2c1` (stereo not drawn) [Example 146, N-(5-(2,3-dihydrobenzo[b][1,4]dioxine-6-carboxamido)-2-methylphenyl)-2-(((tetrahydrofuran-2-yl)methoxy)methyl)quinoline-6-carboxamide], the IC50 with U2OS cells (Homo sapiens, U2OS) is 20 nM; in the test with HSP72 in U2OS cells (Homo sapiens), 77 nM.
For `Cc1ccc(NC(=O)c2ccc3c(c2)OCCO3)cc1NC(=O)c1ccc2nc(COCCN3CCCC3)ccc2c1` [Example 147, N-(5-(2,3-dihydrobenzo[b][1,4]dioxine-6-carboxamido)-2-methylphenyl)-2-((2-(pyrrolidin-1-yl)ethoxy)methyl)quinoline-6-carboxamide] the same measures were 54 nM and 83 nM.
For `Cc1ccc(NC(=O)c2ccc3c(c2)OCCO3)cc1NC(=O)c1cnc2cccc(NCCN3CCCC3)c2c1` [Example 148, N-(5-(2,3-dihydrobenzo[b][1,4]dioxine-6-carboxamido)-2-methylphenyl)-5-((2-(pyrrolidin-1-yl)ethyl)amino)quinoline-3-carboxamide], the IC50 amounted to 104 nM in the test with U2OS cells (Homo sapiens, U2OS) and 88 nM in the test with HSP72 in U2OS cells (Homo sapiens).
`O=C(Nc1ccc(Cl)c(NC(=O)c2ccc3ncccc3c2)c1)c1ccc2c(c1)OCCO2` [Example 149, N-(2-chloro-5-(2,3-dihydrobenzo[b][1,4]dioxine-6-carboxamido)phenyl)quinoline-6-carboxamide]: the IC50 with U2OS cells (Homo sapiens, U2OS) stood at 20 nM; in the test with HSP72 in U2OS cells (Homo sapiens), 63 nM.
As for `Cc1ccc(NC(=O)c2ccc3c(c2)OCCO3)cc1NC(=O)c1ccc2nc(COCC(C)C)ccc2c1` [Example 151, N-(5-(2,3-dihydrobenzo[b][1,4]dioxine-6-carboxamido)-2-methylphenyl)-2-(isobutoxymethyl)quinoline-6-carboxamide], the IC50 turned out to be 26 nM in the test on U2OS cells (Homo sapiens, U2OS) and 100 nM with HSP72 in U2OS cells (Homo sapiens).
On to `Cc1ccc(NC(=O)c2ccc3c(c2)OCCO3)cc1NC(=O)c1ccc2c(c1)CCC(C)N2` (stereo not drawn) [Example 152, N-(5-(2,3-dihydrobenzo[b][1,4]dioxine-6-carboxamido)-2-methylphenyl)-2-methyl-1,2,3,4-tetrahydroquinoline-6-carboxamide], for which the IC50 with U2OS cells (Homo sapiens, U2OS) came to 153 nM; with HSP72 in U2OS cells (Homo sapiens), 105 nM.
For the molecule `Cc1ccc(NC(=O)c2ccc3c(c2)OCCO3)cc1NC(=O)c1ccc2cnc(OCCN3CCCC3)cc2c1` [Example 156, N-(5-(2,3-dihydrobenzo[b][1,4]dioxine-6-carboxamido)-2-methylphenyl)-3-(2-(pyrrolidin-1-yl)ethoxy)isoquinoline-6-carboxamide], the IC50 with U2OS cells (Homo sapiens, U2OS) came to 79 nM; with HSP72 in U2OS cells (Homo sapiens), 161 nM.
With `Cc1ccc(NC(=O)c2ccc3c(c2)OCCO3)cc1NC(=O)c1cnc2cccc(CCN3CCCC3)c2c1` [Example 158, N-(5-(2,3-dihydrobenzo[b][1,4]dioxine-6-carboxamido)-2-methylphenyl)-5-(2-(pyrrolidin-1-yl)ethyl)quinoline-3-carboxamide], the IC50 with U2OS cells (Homo sapiens, U2OS) came to 202 nM; with HSP72 in U2OS cells (Homo sapiens), 239 nM.
With `C=CCc1cccc2ncc(C(=O)Nc3cc(NC(=O)c4ccc5c(c4)OCCO5)ccc3C)cc12` [Example 161, 5-allyl-N-(5-(2,3-dihydrobenzo[b][1,4]dioxine-6-carboxamido)-2-methylphenyl)quinoline-3-carboxamide], the IC50 with U2OS cells (Homo sapiens, U2OS) amounted to 557 nM; in the test on HSP72 in U2OS cells (Homo sapiens), 911 nM.
As to `Cc1ccc(NC(=O)c2ccc3c(c2)OCCO3)cc1NC(=O)c1ccc2nc(N(C)CCC(=O)O)ccc2c1` [Example 163, 3-((6-((5-(2,3-dihydrobenzo[b][1,4]dioxine-6-carboxamido)-2-methylphenyl)carbamoyl)quinolin-2-yl)(methyl)amino)propanoic acid], the IC50 in the test on U2OS cells (Homo sapiens, U2OS) was 1850 nM; with HSP72 in U2OS cells (Homo sapiens), 1130 nM.
As to `COCc1ccc(NC(=O)c2ccc3c(c2)OCCO3)cc1NC(=O)c1ccc2nc(C)ccc2c1` [Example 166, N-(5-(2,3-dihydrobenzo[b][1,4]dioxine-6-carboxamido)-2-(methoxymethyl)phenyl)-2-methylquinoline-6-carboxamide], the IC50 came to 68 nM with U2OS cells (Homo sapiens, U2OS) and 298 nM with HSP72 in U2OS cells (Homo sapiens).
Consider `Cc1ccc2cc(C(=O)Nc3cc(NC(=O)c4ccc5c(c4)OCCO5)ccc3CO)ccc2n1` [Example 167, N-(5-(2,3-dihydrobenzo[b][1,4]dioxine-6-carboxamido)-2-(hydroxymethyl)phenyl)-2-methylquinoline-6-carboxamide], for which the concentration for half-maximal inhibition (IC50) in the test on U2OS cells (Homo sapiens, U2OS) amounted to 86 nM; in the test on HSP72 in U2OS cells (Homo sapiens), 176 nM.
In the case of `Cc1ccc(NC(=O)c2ccc3c(c2)OCCO3)cc1NC(=O)c1ccc2c(c1)CS(=O)(=O)N2C` [Example 168, N-(5-(2,3-dihydrobenzo[b][1,4]dioxine-6-carboxamido)-2-methylphenyl)-1-methyl-1,3-dihydrobenzo[c]isothiazole-5-carboxamide 2,2-dioxide], the IC50 worked out at 19 nM in the test on U2OS cells (Homo sapiens, U2OS) and 14 nM in the test with HSP72 in U2OS cells (Homo sapiens).
For “N-(5-(2,3-dihydrobenzo[b][1,4]dioxine-6-carboxamido)-2-methylphenyl)-34(2-methoxyethyl)amino)-2-(2-(pyrrolidin-1-yl)ethoxy)quinoline-6-carboxamide [Example 150]”, the IC50 turned out to be 86 nM in the test on U2OS cells and 98 nM in the test on HSP72 in U2OS cells.
Consider “N-(5-amino-2-((dimethylamino)methyl)phenyl)-2-methylquinoline-6-carboxamide [Example 165]”, for which the IC50 with U2OS cells was 1 nM; in the test on HSP72 in U2OS cells it was 5 nM.
“tert-butyl (44(64(5-(2,3-dihydrobenzo[b][1,4]dioxine-6-carboxamido)-2-methylphenyl)carbamoyl)quinolin-2-yl)oxy)butyl)carbamate [Example 164]”: the figures for the IC50 in the test on U2OS cells and with HSP72 in U2OS cells were 859 nM and 1540 nM, respectively.

The term IC50 denotes the concentration needed to halve the response being measured. The low end stands for greater potency, the high end for weaker potency.
